Laboratory results from patent US20030077689A1, “Microbial growth variations” (priority 1999, published 2003).

System: Staphylococcus aureus
Test: Replicate-well microdilution growth test (32 replicates per antibiotic concentration), growth ranked by viability in culture and direct epifluorescence
Assay type: cell-based
Settings: for growth response of replicate wells: 5 hours at 37° C.
From the text: Format: In general terms the entire series of tests followed the methods for use of microdilution plates. Each of the eight antibiotic concentrations was represented by 32 replicate wells, thus amounting to 8×32[256] test wells in a three plate array.
Organisms: Two cultures of Staphylococcus aureus, with one isolated from plates containing penicillin supplemented agar to provide cells of known β lactamase activity.
Inoculum: A target level of 10^2 cells/wells was selected to test an adequate number of organisms within each treatment. In the examples 2-4 the aim was to include an increasing proportion of resistant/β lactamase positive cells. Preparation by dilutions at these levels will undoubtedly be prone to errors.
Incubation: Sealed plates incubated for 5 hours at 37° C. [previously shown to provide significant growth]. At the end of incubation well contents […] were transferred to 200 μl using individual sterile pipette tips [i.e. one/well].
A 100 μl sample of diluted well contents was plated and spread on culture plates. The growth, corresponding to the situation at 5 hours, was assessed after incubation of the culture plates overnight.
ii. Direct Epifluorescence Method
A second 100 μl sample was filtered through a commercially available 0.2μ nuclepore membrane. This non-fluorescent, black filter was supported on a 5.0μcellulosic membrane filter. Discrete 3.0 mm diameter filter zones were created by attaching pre-punched black adhesive tape to the membranes. After filtration the zones were stained with 0.01% w/v Acriflavine™ in phosphate buffer at pH 7.2 [filtered immediately before use]. Direct observation, using an epifluorescence microscope resembles the DEFT method described by Pettifer G L Rodrigues U K [1982] J.Appl.Bact. 53:323-329. Using a large numerical aperture×45 objective it is relatively simple to rank the estimated density of growth.
The viability test depicts growth responses in terms of organisms recovered and subsequently able to produce colonies on a secondary culture plate. Direct epifluorescence/filtration does constitute rapid detection but in this manual form is both cumbersome and labour intensive. Within these constraints both methods served to assign rankings to the growth response of every well. The two methods were adequate to indicate the presence of growth.

Penicillin
growth response of replicate wells (Example 1 (no resistant cells added), antibiotic levels higher than 0.015 μg/ml): no evidence of growth
growth response of replicate wells (Examples 1-4, antibiotic concentration 0.004 μg/ml, 32 replicate wells): all 32 replicate wells exhibit continued growth
growth response of replicate wells (Examples 1-4, antibiotic concentration 0.015 μg/ml): the population in some wells exhibits sensitivity
growth response of replicate wells (Examples 2, 3 and 4 (inoculum with increasing proportion of resistant/β lactamase positive cells)): an appreciable number of wells show low grade growth
sensitivity of resistant sub-populations in some wells (Examples 2, 3 and 4, antibiotic concentration 0.250 μg/ml): insensitive
